Measurements from EP0337731B1, “Peptide antibiotics” (ELI LILLY AND COMPANY, priority 1988, dated 1989).

Tested on: A54145.1, A54145.2, and A54145.3
Test: Resistance to antibiotics, sensitivity discs on seeded ISP No. 2 agar plates
Type: cell-based, Streptomyces fradiae
Method: A54145.1, A54145.2, and A54145.3 had identical antibiotic-resistance patterns. The strains were resistant to lincomycin at 2 µg and penicillin G at 10 units. The strains were sensitive to bacitracin at 10 units, cephalothin at 30 µg, gentamicin at 10 µg, neomycin at 30 µg, oleandomycin at 15 µg, rifampin at 5 µg, streptomycin at 10 µg, tetracycline at 30 µg, tobramycin at 10 µg and vancomycin at 30 µg.

Compound: CC(=O)OCC1=C(C(=O)O)N2C(=O)[C@@H](NC(=O)Cc3cccs3)[C@H]2SC1 [cephalothin]
- antibiotic-resistance pattern (disc at 30 µg): sensitive

Compound: CCC[C@@H]1C[C@@H](C(=O)N[C@@H]([C@H]2O[C@H](SC)[C@H](O)[C@@H](O)[C@H]2O)[C@@H](C)O)N(C)C1 [lincomycin]
- antibiotic-resistance pattern (disc at 2 µg): resistant

Compound: CO[C@H]1C[C@H](O[C@H]2[C@H](C)[C@@H](O[C@@H]3O[C@H](C)C[C@H](N(C)C)[C@H]3O)[C@@H](C)C[C@@]3(CO3)C(=O)[C@H](C)[C@@H](O)[C@@H](C)[C@@H](C)OC(=O)[C@@H]2C)O[C@@H](C)[C@@H]1O [oleandomycin]
- antibiotic-resistance pattern (disc at 15 µg): sensitive

Compound: CC1(C)S[C@@H]2[C@H](NC(=O)Cc3ccccc3)C(=O)N2[C@H]1C(=O)O [penicillin G]
- antibiotic-resistance pattern (disc at 10 units): resistant

Compound: CO[C@H]1/C=C/O[C@@]2(C)Oc3c(C)c(O)c4c(O)c(c(/C=N/N5CCN(C)CC5)c(O)c4c3C2=O)NC(=O)/C(C)=C\C=C\[C@H](C)[C@H](O)[C@@H](C)[C@@H](O)[C@@H](C)[C@H](OC(C)=O)[C@@H]1C [rifampin]
- antibiotic-resistance pattern (disc at 5 µg): sensitive

Compound: [H]/N=C(/N)N[C@H]1[C@H](O)[C@@H](O)[C@H](O[C@@H]2O[C@@H](C)[C@](O)(C=O)[C@H]2O[C@@H]2O[C@@H](CO)[C@H](O)[C@@H](O)[C@@H]2NC)[C@@H](N/C(N)=N\[H])[C@@H]1O [streptomycin]
- antibiotic-resistance pattern (disc at 10 µg): sensitive

Compound: NC[C@H]1O[C@H](O[C@H]2[C@H](O)[C@@H](O[C@H]3O[C@H](CO)[C@@H](O)[C@H](N)[C@H]3O)[C@H](N)C[C@@H]2N)[C@H](N)C[C@@H]1O [tobramycin]
- antibiotic-resistance pattern (disc at 10 µg): sensitive

Compound: CN[C@H](CC(C)C)C(=O)N[C@H]1C(=O)N[C@@H](CC(N)=O)C(=O)N[C@H]2C(=O)N[C@H]3C(=O)N[C@H](C(=O)N[C@H](C(=O)O)c4cc(O)cc(O)c4-c4cc3ccc4O)[C@H](O)c3ccc(c(Cl)c3)Oc3cc2cc(c3O[C@@H]2O[C@H](CO)[C@@H](O)[C@H](O)[C@H]2O[C@H]2C[C@](C)(N)[C@H](O)[C@H](C)O2)Oc2ccc(cc2Cl)[C@H]1O [vancomycin]
- antibiotic-resistance pattern (disc at 30 µg): sensitive

Compound: bacitracin
- antibiotic-resistance pattern (disc at 10 units): sensitive

Compound: gentamicin
- antibiotic-resistance pattern (disc at 10 µg): sensitive

Compound: neomycin
- antibiotic-resistance pattern (disc at 30 µg): sensitive
